Values quoted from earlier work, collected in PMC4962924 (Chemistry (Weinheim an der Bergstrasse, Germany), 2016).

Test system: Hsp90
Details: natural product C-terminal inhibitors; ref [25],[26]

## CO[C@H]1[C@H](OC(=O)c2ccc(C)[nH]2)[C@H](O)[C@@H](Oc2ccc3c(O)c(NC(=O)c4c[nH]c(C(=O)Nc5c(O)c6ccc(O[C@H]7OC(C)(C)[C@@H](OC)[C@H](OC(=O)c8ccc(C)[nH]8)[C@@H]7O)c(C)c6oc5=O)c4C)c(=O)oc3c2C)OC1(C)C [coumermycin A1]
  IC50: 70 µM
